# Experimental data: a melting point compilation (Tetko et al.; mined from patent text by program, amines drawn as free bases though some values may be those of a salt)
row,melting point,Compound
1,175 to 179 °C,O=C(O)c1c(O)cccc1-n1cccn1
2,146 to 147 °C,CC(=O)COc1cc(-c2ncc(C(F)(F)F)cc2Cl)ccc1C#N
3,198 to 200 °C,CON1C=C2N=NC3=C(N2C1)N(c1ccccc1Cl)CC(C)=C3
4,164 to 166 °C,CC12CC(=O)C3C(CCC4C(Br)C(O)CCC43C)C1CCC2C(=O)CBr (stereo unspecified)
5,133 to 134 °C,C1CN(c2nc(NC3CC3)nc(C3CC3)n2)CCS1
6,> 300 °C,CC(=O)Nc1cccc2c1C(=O)c1c-2n[nH]c1-c1cccnc1
7,178 to 180 °C,Clc1cccc(Nc2ncnc(-c3ccnc(Cl)c3)n2)c1
8,187 to 190 °C,c1ccc(N=C(NC(=Nc2ccccc2)N2CCCCO2)c2ccccc2)cc1
9,114 °C,O=S(=O)(COc1ccc(Cl)cc1)c1ccc(Cl)cc1
10,190 °C,NNc1nnc(Cl)cc1N
11,173 to 175 °C,COc1cc([N+](=O)[O-])c2ncc(C)cc2c1
12,166 to 168 °C,Cn1cc(C(=O)NCc2ccc(Cl)cc2)c(=O)c2cc(CC3CCOCC3)cc(C#CCO)c21
13,161 °C,CCOc1c(SC(F)(F)F)c(C(N)=O)nn1-c1c(Cl)cc(C(F)(F)F)cc1Cl
14,100 to 103 °C,c1ccc2c(Nc3ccc4c(c3)CCC4)ncc(Sc3ccncc3)c2c1
15,47.5 to 49 °C,CC(C)(c1ccccc1)c1cccc(S(=O)(=O)Cl)c1
16,72 to 80 °C,CC(C)N[C@H](C(=O)NCCCC(c1ccc(F)cc1)c1ccc(F)cc1)C(C)C
17,150 °C,Cc1cc(CC(Cc2cc(C)c(O)c(C(C)(C)C)c2)(C(=O)OC2CC(C)(C)N(C)C(C)(C)C2)C(=O)OC2CC(C)(C)N(C)C(C)(C)C2)cc(C(C)(C)C)c1O
18,120 to 122 °C,CC(=O)Oc1ccc(C(=O)c2ccc(OC(C)=O)cc2)cc1
19,45 to 47 °C,OC(CCCCCCCCCOCc1ccccc1)c1ccc(OCc2ccccc2)c(OCc2ccccc2)c1 (stereo unspecified)
20,149 to 150 °C,Cc1cc(C(=O)NCc2ccc(Br)cc2F)c(O)cc1F
21,48 to 49 °C,CCOC(=O)c1nc(SC)nc(OC)c1OCc1ccccc1

# Continued, compound first:
row,Compound,melting point
1,Cn1c(OC2CCOC2)nn(C(=O)Oc2ccccc2)c1=O (stereo unspecified),98 °C
2,COC(=O)c1cc(C(F)(F)F)cc(OCc2ccccc2)c1OCc1ccccc1,78 to 79 °C
3,CCCCCCCCCCS(=O)(=O)c1ccc(O)c(C(=O)Nc2ccc(C(F)(F)F)cc2)c1,155 to 157 °C
4,CC(=NO)c1ccc(NS(C)(=O)=O)c(Oc2ccc(F)cc2F)c1,150 to 151 °C
5,CC(=O)Oc1cc(C)cc(C(=O)Cl)c1C,52 to 54 °C
6,Cc1cc(F)c(F)c(C=O)c1O,53 to 56 °C
7,CN1c2ccccc2-c2nc3ccc(Cl)cc3c3cc(OS(=O)(=O)C(F)(F)F)cc1c23,193 to 195 °C
8,NC(CF)(Cc1ccc(O)c(O)c1)C(=O)O (stereo unspecified),230 °C
9,CNCC(=O)Nc1ccc(S(=O)(=O)c2cccc(Cl)c2)cc1,110 to 112 °C
10,CC(=N)NS(=O)(=O)c1cc(I)cc(C#N)c1,177 to 178 °C
11,COc1cc(COc2cc(N)c(Cl)cc2C(=O)CCCCN2CCCCCC2)cc(OC)c1,137 to 139 °C
12,O=C(NC1CC1)C1CC(=O)N(Cc2ccccc2)C1 (stereo unspecified),94 to 96 °C
13,Fc1cccc2c(NCCc3cccs3)ccnc12,157 to 158 °C
14,CC(=O)c1ccc(NC(=O)c2cc(Cl)cc(Cl)c2)cc1,199 to 200 °C
15,O=C(NCCNCCNC(=O)C(F)(F)F)C(F)(F)F,68 to 70 °C
16,CC(Oc1ccc(C(=O)O)cc1)c1ccccc1OCc1ccccc1 (stereo unspecified),203 to 204 °C
17,CCc1oc(-c2ccc(C(F)(F)F)cc2)cc1CCC(=O)O,94 to 95 °C
18,CCCC(SCC(=O)O)c1ccc2c(c1)OCO2 (stereo unspecified),59 to 61 °C
19,Nc1cccc(C(=O)Nc2ccc(-c3ccc(C(=O)N4CCN5CCC4CC5)o3)cc2)c1,249 to 252 °C
20,COC(=O)C1=C(O)c2ccc3ccccc3c2S(=O)(=O)N1C,229 to 230 °C
